For the test, the target named is nitrogen monoxide synthase (Rattus norvegicus, UniProt P29476). Description: citrulline assay, inhibition of NO synthase. In kind it is biochemical. The protocol:
The IC50 value of each of the example compounds as an inhibitor of NO synthase was determined in a citrulline assay. This assay was carried out as described by D. S. Bredt and S. H. Snyder (Proc. Natl. Acad. Sci. USA (1990), 87, 682-685).

SMILES strings stand for the structures.

As usually defined, the IC50 is the midpoint of a concentration-inhibition curve. Lower therefore signals inhibition by little substance. Regarding `Cc1ccnc(NCc2c(C)nc3cc(C)ccn23)c1` [Example 2, (2,7-Dimethyl-imidazo[1,2-a]pyridin-3-ylmethyl)-(4-methyl-pyridin-2-yl)-amine], the IC50 was found to be 2.5 µM. In other words, the single-digit micromolar range.
`Cc1ccn2c(CN(C)C)c(C)nc2c1` [Example 1] registered an IC50 of 4 µM.

The values are drawn from patent publication US7342025B2, “Substituted C-imidazo[1,2-a]pyridin-3-yl-methylamines” (Gruenenthal GmbH, priority 2002, dated 2008).
